Legend:
powdery mildew = powdery mildew on roses, disease rating / MPDC after foliar spray; format: in vivo, Sphaerotheca pannosa; conditions: for Mean % Disease Control, rose powdery mildew: single 100 ml foliar spray; for Mean Percentage of Disease Control (MPDC), powdery mildew: five week trial
Experimental: Each formulation is evaluated for its effect on specific pests and/or plant host using any of the compounds of formula (1) as well as other components of the formulation such as Tween 80 and/or sodium bicarbonate, with the combination and effective amount of each component adapted for a particular application to minimize toxicity while maintaining or increasing the antipathogenic effect of the formulation. The effective amount of each component may be determined by systematically varying the amount of that component in a test formulation, treating a plant of interest with the test formulation, and monitoring the level of pest infestation compared to an untreated control plant. An effective amount of a test component is identified as the amount that controls the growth of the pathogen on the plant host, thus reducing the disease rating of the plant. The mean percentage disease […] (MPDC) can be calculated for each particular application. MPDC is defined by the formula: [formula] Eight cultivars of rose were tested to investigate the effect of a cinnamic aldehyde/NaHCO3 formulation on rust and spores. The cultivars used included Moss unnamed (Moss), […], Rosette Delize (Hybrid Tea), Rosa Rugosa Rubra (Rugosa), Abel Morrison (Hybrid perpetual), John Laing, Betty Prior, and Rose de Roi. […] The Hybrid Tea and Hybrid perpetual were rated 3 and the Rugosa was rated 1. […] Control plants received no treatment. […] Moreover, the treatment appeared to have induced systemic resistance. […] Plants were an average of 0.86 m apart. […] Controls were untreated plants. […] Weekly reviews were made of the various plants. […] of infected rose in dedicated experimental rose gardens were used. Four Mrs. John Laing (Hybrid perpetual) and two Marchionese of Londonderry (Hybrid perpetual) rose plants were treated with one of two formulations of coniferyl aldehyde. […] The first two Mrs. […] Mrs. […] Both Marchionese of Londonderry plants (P5 and P6) were rated 5 for powdery mildew and rust after Paulus and Nelson (supra). Two treatment formulae were used for this trial. […] Control plants were sprayed with water alone. The change in the rating from pre-treatment to post-treatment was calculated as the mean percentage of disease control (MPDC) as described herein. A three treatment experiment with cinnamic aldehyde formula, coniferyl aldehyde formula and combined cinnamic and coniferyl aldehyde formula was carried out on field grown roses known to be susceptible to powdery mildew. The plants were blocked by variety before fungicide treatments and were randomized as to the plants. Two varieties were used in each of the three experiments described below. […] In experiment 3 Comte de Chambord (Portland) and Madame Pierre Oger (Bourbon) were used. In Experiment 1, the effect of cinnamic aldehyde alone and in combination with Tween 80 and/or NaHCO3 component was evaluated in experiment 2 the effect of coniferyl aldehyde alone and in combination with Tween 80 and/or NaHCO3 was evaluated and in experiment 3 a combination of cinnamic aldehyde and coniferyl aldehyde with Tween 80 and/or NaHCo3 was evaluated. […] See Table 3 for the treatment protocol; formula 1 was used for these experiments. […] Plants were evaluated using the Paulus/Nelson scale just prior to and four days after treatment. […] Moreover, cinnamic aldehyde, coniferyl aldehyde, Tween 80 and NaHCO3 are used in the food industry and there is likely to be little toxicological risk to the consumer or handler from any horticultural or food crop sprayed in this way. Similarly, as these chemicals leave no toxic residue, there is little chance of any detrimental effect on the wider environment, and their use is likely to be compatible with current biological control methods such as beneficial insects and/or microorganisms.

rust = rust (and spores) on roses, disease rating / MPDC after foliar spray; format: in vivo, Phragmidrium mucronatrum
Experimental: Each formulation is evaluated for its effect on specific pests and/or plant host using any of the compounds of formula (1) as well as other components of the formulation such as Tween 80 and/or sodium bicarbonate, with the combination and effective amount of each component adapted for a particular application to minimize toxicity while maintaining or increasing the antipathogenic effect of the formulation. The effective amount of each component may be determined by systematically varying the amount of that component in a test formulation, treating a plant of interest with the test formulation, and monitoring the level of pest infestation compared to an untreated control plant. An effective amount of a test component is identified as the amount that controls the growth of the pathogen on the plant host, thus reducing the disease rating of the plant. The mean percentage disease […] (MPDC) can be calculated for each particular application. MPDC is defined by the formula: [formula] Eight cultivars of rose were tested to investigate the effect of a cinnamic aldehyde/NaHCO3 formulation on rust and spores. The cultivars used included Moss unnamed (Moss), […], Rosette Delize (Hybrid Tea), Rosa Rugosa Rubra (Rugosa), Abel Morrison (Hybrid perpetual), John Laing, Betty Prior, and Rose de Roi. […] The Hybrid Tea and Hybrid perpetual were rated 3 and the Rugosa was rated 1. […] Control plants received no treatment. […] Moreover, the treatment appeared to have induced systemic resistance. […] Plants were an average of 0.86 m apart. […] Controls were untreated plants. […] Weekly reviews were made of the various plants. […] Six cultivars of infected rose in dedicated experimental rose gardens were used. Four Mrs. John Laing (Hybrid perpetual) and two Marchionese of Londonderry (Hybrid perpetual) rose plants were treated with one of two formulations of coniferyl aldehyde. […] The first two Mrs. […] Mrs. […] Both Marchionese of Londonderry plants (P5 and P6) were rated 5 for powdery mildew and rust after Paulus and Nelson (supra). Two treatment formulae were used for this trial. […] Control plants were sprayed with water alone. The change in the rating from pre-treatment to post-treatment was calculated as the mean percentage of disease control (MPDC) as described herein.

Ring Nematode = test: vineyard grape vines, nematode infestation: ring; format: in vivo
Experimental: The subject formulations were tested for ability to reduce grape vine infestation by root knot, ring, stubby root, and roll lesion nematodes. Grape vines (Harmony rootstock) in a vinyard were treated with 1000 ppm or 3000 ppm cinnamaldehyde in 2% Tween 80, the commercial anti-nematode agent Nemacur, or a formulation blank. The extent of nematode infestation was determined at the time of treatment and at 30 and 60 days post-treatment.

[1] = potted roses, ~100 ml foliar spray of 5 g cinnamic aldehyde, 80 g NaHCO3, 10 g Tween 80 per 1000 g, weekly saponin, observed 8 weeks

## O=C/C=C/c1ccccc1 [cinnamic aldehyde]
Powdery mildew; aldehyde 5 g (mixture 2.5 g + 2.5 g) with NaHCO3 (80 g), four days
  Mean % Disease Control, rose powdery mildew: 56%
Powdery mildew; aldehyde 5 g (mixture 2.5 g + 2.5 g) with T80 (10 g), four days
  Mean % Disease Control, rose powdery mildew: 44%
Powdery mildew; aldehyde 5 g (mixture 2.5 g + 2.5 g) with T80 + NaHCO3 (formulas G, M, Q), four days
  Mean % Disease Control, rose powdery mildew: 94%
Powdery mildew; aldehyde 5 g (mixture 2.5 g + 2.5 g), no additive, rated four days after treatment
  Mean % Disease Control, rose powdery mildew: 50%
Powdery mildew; field rose Betty Prior, same single spray
  Mean Percentage of Disease Control (MPDC), powdery mildew: 64.3%
Powdery mildew; field rose John Laing, single spray 5 g cinnamic aldehyde, 10 g Tween 80, 80 g NaHCO3 per 1000 g
  Mean Percentage of Disease Control (MPDC), powdery mildew: 98.3%
Powdery mildew; field rose Rose de Roi, same single spray
  Mean Percentage of Disease Control (MPDC), powdery mildew: 100%
Powdery mildew; field roses John Laing, Betty Prior, Rose de Roi, same single spray
  MPDC, powdery mildew, average for all three roses: 90.7%
Powdery mildew; potted or field roses sprayed to runoff with emulsion of cinnamic aldehyde and sodium bicarbonate, concomitantly saponin
  time plants remained free of powdery mildew and rust: up to 56 days
Powdery mildew; [1]
  powdery mildew after a single treatment: eradicative
rust; field rose Rose de Roi, same single spray, five week trial
  Mean Percentage of Disease Control (MPDC), rust: 85.0%
rust; [1]
  rust after a single treatment: eradicative
  spores after a single treatment: eradicative
Ring Nematode; 1000 ppm in 2% Tween 80, 30 days post-treatment
  Ring Nematode, nematodes per 250 cc soil: 171.2 per 250 cc soil
Ring Nematode; 1000 ppm in 2% Tween 80, 60 days post-treatment
  Ring Nematode, nematodes per 250 cc soil: 1168 per 250 cc soil
Ring Nematode; 1000 ppm in 2% Tween 80, day 0 (time of treatment)
  Ring Nematode, nematodes per 250 cc soil: 47.2 per 250 cc soil
Ring Nematode; 3000 ppm in 2% Tween 80, 30 days post-treatment
  Ring Nematode, nematodes per 250 cc soil: 322.8 per 250 cc soil
Ring Nematode; 3000 ppm in 2% Tween 80, 60 days post-treatment
  Ring Nematode, nematodes per 250 cc soil: 1127 per 250 cc soil
Ring Nematode; 3000 ppm in 2% Tween 80, day 0 (time of treatment)
  Ring Nematode, nematodes per 250 cc soil: 540.2 per 250 cc soil

— patent US20030005484A1, “Microbiocidal and pesticidal aromatic aldehydes” (ProGuard, Inc., priority 1994, published 2003)
